# Activity calls are given as the source filed them. The rule behind the calls is not given here.
# Target: Induced myeloid leukemia cell differentiation protein Mcl-1 (Homo sapiens) (UniProt Q07820)
# Assay: blockers of Bid binding to Mcl-1 – biochemical, TR-FRET, dose response (AID 1418)
# Settings: Mcl-1/Bid peptide binding, TR-FRET (europium/Dy647), 2 hr
# Chain of Induced myeloid leukemia cell differentiation protein Mcl-1 (Homo sapiens) (Q07820 whole entry, looked up): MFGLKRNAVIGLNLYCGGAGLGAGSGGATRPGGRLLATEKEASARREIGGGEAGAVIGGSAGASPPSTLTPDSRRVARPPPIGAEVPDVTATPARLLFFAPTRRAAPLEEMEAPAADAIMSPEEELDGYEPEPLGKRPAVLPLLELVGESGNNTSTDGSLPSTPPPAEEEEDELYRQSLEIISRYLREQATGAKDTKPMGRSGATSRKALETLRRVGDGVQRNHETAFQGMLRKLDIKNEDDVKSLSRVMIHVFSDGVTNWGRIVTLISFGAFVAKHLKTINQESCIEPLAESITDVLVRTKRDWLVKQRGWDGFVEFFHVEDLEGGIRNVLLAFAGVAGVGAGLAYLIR
row,Compound,IC50
1,CCOc1ccc(C(Nc2cccnc2)c2cc(Cl)c3cccnc3c2O)cc1 (configuration not stated),0.51 µM
2,CCN1C(=O)/C(=c2\s/c(=C3\Sc4ccccc4N3C)c(=O)n2C)N(C)C1=S,inactive
3,CCc1ccc2c(CN(CC)Cc3nc4ccccc4c(=O)[nH]3)cc(=O)oc2c1,> 54 µM (inactive)
4,CN(C)CC(O)CN(c1ccccc1)c1ccccc1 (configuration not stated),> 54 µM (inactive)
5,CC(/C=C1\SC(=S)N(CCCC(=O)Nc2ccc(C(=O)O)c(O)c2)C1=O)=C\c1ccccc1,3.49 µM
6,CC1(C)Oc2ccc3ccc(=O)oc3c2C[C@H]1O,> 54 µM (inactive)
7,COc1ccc(-c2ccc(C#N)c(SCC(=O)Nc3sc4c(c3C#N)CCC4)n2)cc1OC,0.67 µM
8,O=C(Nc1ccc(Cl)cc1)N1CCc2[nH]c3ccccc3c2C1,> 54 µM (inactive)
9,CSC1=N/C(=C\c2ccccc2F)C(=O)S1,> 54 µM (inactive)
10,COC(=O)c1ccc2c(=O)n(CCCCCC(=O)NCc3ccc4c(c3)OCO4)c(=O)[nH]c2c1,inactive
11,COc1ccc(C(C)=O)cc1COc1ccc(Cl)cc1Cl,> 54 µM (inactive)
12,O=C(COc1ccc2c(c1)CCC2)N1CCc2ccccc21,> 54 µM (inactive)
13,CN(CC(=O)Nc1cccc(C#N)c1)Cc1ccc(Cl)cc1,> 54 µM (inactive)
14,Nc1ccc(C(=O)N/N=C\c2cc(N=Nc3cccc4ccccc34)ccc2O)cc1,12 µM
15,Cc1cccc(NC(=O)c2cc(N3C(=O)CCC3=O)ccc2Cl)n1,> 54 µM (inactive)
16,CC1(c2ccc(Cl)cc2Cl)OCC(Cn2ccnc2)O1 (configuration not stated),> 54 µM (inactive)
17,Cc1ccc(-c2nn(C)c(=O)c3ccccc23)cc1CNC(=O)Cn1nc(-c2ccccc2)c2ccccc2c1=O,0.56 µM
18,O=C(CSc1nnc(SCc2cccc3ccccc23)s1)N=Nc1c(O)[nH]c2ccccc12,3.51 µM
19,CCOC(=O)c1cc(C#N)c(SCC(=O)OC)[nH]c1=O,> 54 µM (inactive)
20,COc1cccc2c(=O)c(C/C=C(/C)Cl)c(C)[nH]c12,> 54 µM (inactive)
21,Cc1ccc(Cn2nc(C)c(NC(=O)CSc3nc4c(c(C(F)(F)F)n3)CCc3ccccc3-4)c2C)cc1,1.91 µM
22,Oc1ccc(/C=N/Nc2ccnc3cc(Cl)ccc23)c(O)c1,6.69 µM
23,COc1cc(C(=O)Nc2ccc3c(c2)C(=O)c2ccccc2C3=O)cc(OC)c1OC,9.01 µM
24,CSc1nc(N(CCO)CCO)c2sc3nc(-c4ccco4)c4c(c3c2n1)CCC4,> 54 µM (inactive)
25,O=C(NCCc1csc(-c2cccnc2)n1)c1cccs1,> 54 µM (inactive)

row,Compound,IC50
1,CN1C(=S)N(c2cccnc2)C(=O)/C1=C\c1ccc(N(C)C)cc1,9 µM
2,O=c1oc2c(O)c(O)cc3c(=O)oc4c(O)c(O)cc1c4c23,0.57 µM
3,O=C(Cc1c(F)cccc1Cl)Nc1ccon1,> 54 µM (inactive)
4,CSc1cccc(NC(=O)CN(C)S(=O)(=O)c2ccccc2)c1,> 54 µM (inactive)
5,CCCOc1ccc(C(=O)NCC(c2ccco2)N(C)C)cc1OC (configuration not stated),> 54 µM (inactive)
6,COC(=O)c1cccc(OCC(O)Cn2ccnc2)c1 (configuration not stated),> 54 µM (inactive)
7,Cc1ccc(NC(=O)CN2C(=O)/C(=C3\SC(=S)N(C4CCS(=O)(=O)C4)C3=O)c3ccccc32)cc1 (configuration not stated),0.54 µM
8,COc1cccc(CN(C(=O)/C=C/c2ccc(Cl)cc2)C2CCS(=O)(=O)C2)c1 (configuration not stated),> 54 µM (inactive)
9,COc1ccccc1CNC(=O)CC(NS(=O)(=O)c1ccc(C)cc1)c1ccco1 (configuration not stated),> 54 µM (inactive)
10,CC1=C(C#N)C(=O)NC(=O)/C1=C\c1ccc(-c2ccc(C)cc2[N+](=O)[O-])o1,1.09 µM
11,Nc1c(C(=O)NC2CC2)sc2nc3c(c(-c4ccco4)c12)CC/C3=C/c1ccco1,> 54 µM (inactive)
12,COc1ccc2[nH]c(=O)c(CN(C(=O)C3CCCO3)c3ccc(C)c(C)c3)cc2c1 (configuration not stated),> 54 µM (inactive)
13,COc1cccc(OC)c1C(=O)Nc1ccccc1C(=O)N1CCOCC1,> 54 µM (inactive)
14,O=C(NN1C(=O)C2C(C1=O)C1C=CC2C12CC2)c1ccc(Cl)cc1 (configuration not stated),> 54 µM (inactive)
15,COc1ccc(-c2nnn(CC(=O)N(CCCO)C(C(=O)NC3CCCC3)c3ccncc3)n2)cc1 (configuration not stated),> 54 µM (inactive)
16,O=C(c1cnn2c(C(F)(F)F)cc(-c3cccs3)nc12)N1CCOCC1,> 54 µM (inactive)
17,CCOC(=O)C1CCCN(c2c(N3CCN(c4cccc(Cl)c4)CC3)c(=O)c2=O)C1 (configuration not stated),> 54 µM (inactive)
18,Cc1ccc2nc(SC(C)C(=O)NC3CCCc4ccccc43)[nH]c2c1 (configuration not stated),> 54 µM (inactive)
19,c1ccc2c(c1)ncn2CCCCOc1ccc2c(c1)CCC2,> 54 µM (inactive)
20,O=c1c2cc(Cl)ccc2nc(-c2ccccc2Cl)n1O,> 54 µM (inactive)
21,CCOc1ccc2nc(N3C(=O)/C(=C/c4ccc(Cl)cc4)NC3=S)sc2c1,2.43 µM
22,N#Cc1ccccc1Cn1c(-c2cscn2)nc2ccccc21,> 54 µM (inactive)
23,COc1ccc2nc(N3C(=O)/C(=C/c4ccc(Cl)cc4)NC3=S)sc2c1,1.75 µM
24,O=C(COc1ccc(/C=N/NC(=O)c2cc3ccccc3o2)cc1Br)Nc1ccccc1,0.61 µM
25,O=C(O)c1ccc(CS(=O)(=O)Cc2ccccc2F)o1,> 54 µM (inactive)

row,Compound,IC50
1,O=C(NC(Cc1ccccc1)C(=O)O)c1ccc(S(=O)(=O)N2CCCCC2)cc1 (configuration not stated),> 54 µM (inactive)
2,C#CCOCCOCCOCCNc1nc(N2CCN(C(=O)[C@H](Cc3cc4ccccc4[nH]3)n3cc([C@@H](N)C(C)CC)nn3)CC2)nc(N2CCN(C(=O)[C@H](CCCCN)n3cc([C@@H](N)CC(C)C)nn3)CC2)n1 (some centres not stated),16.9 µM
3,O=C(N=Nc1c(O)[nH]c2ccc(Br)cc12)c1cc(-c2cccs2)nc2ccccc12,0.54 µM
4,O=C(NCc1ccco1)c1cccn2c(=O)c3cc4ccccc4cc3nc12,0.52 µM
5,COc1cccc(CNC(=O)CSCc2cnn(-c3ccccc3)c2-n2cccc2)c1OC,> 54 µM (inactive)
6,Cc1ccccc1NCC(=O)N/N=C/C(Br)=C/c1ccccc1,> 54 µM (inactive)
7,CN(c1cccc(NC(=O)c2ccccc2N(C)S(C)(=O)=O)c1)S(C)(=O)=O,> 54 µM (inactive)
8,O=C(Nc1ccc(Nc2ccncc2)cc1)c1ccc(Nc2ccnc3ccc([N+](=O)[O-])cc23)cc1[N+](=O)[O-],1.38 µM
9,COc1ccc(CCNc2nc(-c3cccnc3)cs2)cc1OC,> 54 µM (inactive)
10,COc1ccc(CCNc2nc(-c3sc(C)nc3C)cs2)cc1OC,inactive
11,O=c1n(S(=O)(=O)c2cccc3cccnc23)c2ccccc2n1S(=O)(=O)c1cccc2cccnc12,> 54 µM (inactive)
12,O=C(CCCN1C(=O)c2ccccc2C1=O)Nc1ccccc1,> 54 µM (inactive)
13,COc1ccc(C2CC(c3ccccc3)Nc3nc(N)nn32)cc1 (configuration not stated),> 54 µM (inactive)
14,O=C(NC1CCCCC1)C(c1ccc2ncccc2c1)N(Cc1ccccc1)C(=O)c1ccc2c(c1)OCCO2 (configuration not stated),> 54 µM (inactive)
15,O=C1c2cccc3cc([N+](=O)[O-])cc(c23)C(=O)N1/N=C/c1ccc(O)cc1O,0.82 µM
16,O=C(CSc1nc(-c2ccccc2)cc(C(F)(F)F)n1)N1CCOCC1,> 54 µM (inactive)
17,Cc1nnc(SCc2cc(=O)oc3ccc4ccccc4c23)n1Cc1ccccc1,> 54 µM (inactive)
18,O=C(Cn1c2ccccc2c(=O)c2ccccc21)N/N=C/c1cc([N+](=O)[O-])ccc1N1CCCCC1,0.65 µM
19,O=C(NCc1cccnc1)c1cc2nc(-c3ccc4c(c3)OCO4)cc(C(F)(F)F)n2n1,> 54 µM (inactive)
20,COc1ccccc1NC(=O)CSc1nnnn1-c1ccc2c(c1)OCO2,> 54 µM (inactive)
21,Cc1ccc2[nH]c(=O)c(-c3nc4cc(C)ccn4c3NCc3ccco3)cc2c1,12.6 µM
22,CNC(=O)C(=O)NCCN1CCN(C(=O)c2ccc([N+](=O)[O-])cc2)CC1,> 54 µM (inactive)
23,CNc1nn(-c2cccc(Cl)c2)nc1N,> 54 µM (inactive)
24,COc1ccc(C(=O)N(Cc2ccccc2)Cc2cc3cc4c(cc3[nH]c2=O)OCCO4)cc1,> 54 µM (inactive)
25,CC(C)(C)C(O)C(Oc1ccc(Cl)cc1)n1cncn1 (configuration not stated),> 54 µM (inactive)

row,Compound,IC50
1,OCC1CCCN(c2nc(CN3CCCCC3)nc3scc(-c4ccccc4)c23)C1 (configuration not stated),> 54 µM (inactive)
2,O=C(Nc1cccc(Cl)c1)c1cc(N=Nc2ccc([N+](=O)[O-])cc2Cl)ccc1O,4.18 µM
3,O=C(COC(=O)c1cc[n+]([O-])cc1)Nc1ccccc1Cl,> 54 µM (inactive)
4,CNNC(=O)C(=O)NNS(=O)(=O)c1ccccc1,> 54 µM (inactive)
5,CCOC(=O)c1c(NC(=O)CN(C)C)sc(C(=O)N(CC)CC)c1C,> 54 µM (inactive)
6,COc1ccc(CN2C(=O)/C(=C/c3ccc(-c4ccc(Cl)c(C(=O)O)c4)o3)SC2=S)cc1,1.65 µM
7,Cc1csc2ncnc(N3CCN(C(=S)Nc4ccc(F)cc4F)CC3)c12,> 54 µM (inactive)
8,O=C(O)CCc1nn2c3ccccc3n(CC(=O)c3ccccc3)c2nc1=O,> 54 µM (inactive)
9,O=C1Nc2ccccc2/C1=N/N=C/c1ccc(-c2ccc([N+](=O)[O-])cc2)o1,0.59 µM
10,CN(C)c1ccnc2sc(C(N)=O)c(N)c12,> 54 µM (inactive)
11,COC(=O)c1ccc(Oc2coc3cc(OCc4ccc([N+](=O)[O-])cc4)ccc3c2=O)cc1,> 54 µM (inactive)
12,CCCC(=O)Nc1nnc(-c2cccc(OCC)c2)s1,> 54 µM (inactive)
13,CC(=O)c1ccc(NC(=S)NNC(=O)c2ccncc2)cc1,> 54 µM (inactive)
14,N=C1/C(=C\c2ccc(-c3cccc(C(=O)O)c3)o2)C(=O)N=C2SC=C(c3ccccc3)N12,4.64 µM
15,COc1ccc(C(=O)Nc2nc3cc(OC)c(OC)cc3c(=O)[nH]2)cc1,> 54 µM (inactive)
16,COc1ccc(C(=O)/C=C/c2ccc(N3CCCCC3)c([N+](=O)[O-])c2)cc1,> 54 µM (inactive)
17,COc1cccc(N2CCN(C(=O)NC3CCCCC3)CC2)c1,> 54 µM (inactive)
18,O=C(COC(=O)CCS(=O)(=O)c1ccc(Cl)cc1)Nc1ncc(Cl)cc1Cl,> 54 µM (inactive)
19,COc1cc2c(cc1OC)-c1cc(NCc3ccccn3)nc(=O)n1CC2,0.55 µM
20,O=[N+]([O-])c1ccc(/C=N/NC(=S)Nc2ccc(Cl)cc2Cl)s1,1.48 µM
21,COc1cccc2c1nc(C)c1cc(C)oc12,> 54 µM (inactive)
22,N#Cc1nc(COc2ccc(F)cc2)oc1N1CCN(Cc2ccccc2)CC1,> 54 µM (inactive)

# Source: PubChem BioAssay AID1418 (Emory University Molecular Libraries Screening Center, 2008)
